In patent US9139557B2, “Carboxamide compounds and their use as calpain inhibitors” (Abbott GmbH & Co. KG, priority 2006, dated 2015):

Key:
Format in all cases: biochemical
[1] = molecular target: T1, cathepsin B (Homo sapiens, UniProt P07858); assay: Cathepsin B enzyme inhibition in vitro (kinetic fluorescence assay); conditions: Ki(cathepsin B)/Ki(calpain) ratio
T1 construct: cathepsin B—isolated from human liver; purchased Calbiochem 219362; host or cells: human liver (tissue isolate)
Procedure, shortened: (§1)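 Kinetic fluorescence (ex 390/em 460 nm), room temperature: calpain-I (human erythrocyte, 20 nM) with 100 µM Suc-Leu-Tyr-AMC, imidazole/CaCl2 pH 7.3; cathepsin B (liver, 0.25 nM), 100 µM Z-Phe-Arg-AMC; L (liver, 1 nM), 2 µM Z-Phe-Arg-AMC; S (recombinant, 0.5 nM), 20 µM Z-Val-Val-Arg-AMC; cathepsins in MES/EDTA/cysteine pH 6.0. Apparent Ki via Cheng-Prusoff, 2–4 curves averaged.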

[2] = molecular target: T2, cathepsin K (Homo sapiens, UniProt P43235); assay: Cathepsin K enzyme inhibition in vitro (kinetic fluorescence assay); conditions: Ki(cathepsin K)/Ki(calpain) ratio
T2 construct: purchased Calbiochem 342001; host or cells: E. coli
T2 sequence (P43235 115-329): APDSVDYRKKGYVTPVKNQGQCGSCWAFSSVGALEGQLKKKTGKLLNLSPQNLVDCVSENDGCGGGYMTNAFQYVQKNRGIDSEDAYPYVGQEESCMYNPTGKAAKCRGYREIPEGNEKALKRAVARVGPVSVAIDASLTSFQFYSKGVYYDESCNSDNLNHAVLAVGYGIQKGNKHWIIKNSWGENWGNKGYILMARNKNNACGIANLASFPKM

[3] = molecular target: T3, cathepsin L (Homo sapiens, UniProt P07711); assay: Cathepsin L enzyme inhibition in vitro (kinetic fluorescence assay); conditions: Ki(cathepsin L)/Ki(calpain) ratio
T3 construct: cathepsin L—isolated from human liver; purchased Calbiochem 219402; host or cells: human liver (tissue isolate)
Procedure, shortened: as §1

[4] = molecular target: T4, cathepsin S (Homo sapiens, UniProt P25774); assay: Cathepsin S enzyme inhibition in vitro (kinetic fluorescence assay); conditions: Ki(cathepsin S)/Ki(calpain) ratio
T4 construct: purchased Calbiochem 219343; host or cells: E. coli
Procedure, shortened: as §1

T3 sequence (P07711 114-333): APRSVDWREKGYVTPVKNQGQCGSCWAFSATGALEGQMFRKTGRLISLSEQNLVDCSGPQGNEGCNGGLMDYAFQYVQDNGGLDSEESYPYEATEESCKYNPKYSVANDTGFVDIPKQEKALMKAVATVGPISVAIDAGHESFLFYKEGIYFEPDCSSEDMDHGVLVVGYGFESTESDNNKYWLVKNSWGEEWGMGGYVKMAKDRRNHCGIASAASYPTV
T4 sequence (P25774 115-331): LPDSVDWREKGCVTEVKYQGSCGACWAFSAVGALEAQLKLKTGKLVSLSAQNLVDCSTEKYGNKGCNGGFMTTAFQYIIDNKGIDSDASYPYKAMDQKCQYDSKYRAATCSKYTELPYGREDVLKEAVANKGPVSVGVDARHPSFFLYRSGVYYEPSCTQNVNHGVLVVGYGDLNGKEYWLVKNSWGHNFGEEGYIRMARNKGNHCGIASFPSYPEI

Row | Compound | Sel cat. B [1] | Sel cat. K [2] | Sel cat. L [3] | Sel cat. S [4]
1 | NC(=O)C(=O)C(Cc1ccccc1)NC(=O)c1cccnc1-n1cc(Cl)c(-c2ccc(F)cc2)n1 (stereo not drawn) [Example 184, N-[3-Amino-2,3-dioxo-1-(phenylmethyl)propyl]-2-[4-chloro-3-(4-fluorophenyl)-1H-pyrazol-1-yl]pyridine-3-carboxamide] | + (+ means 10≦Ki(cathepsin B)/Ki(calpain)<30) | + (+ means 10≦Ki(cathepsin K)/Ki(calpain)<30) | ++ (++ means a Ki(cathepsin L)/Ki(calpain) ratio of ≧50) | ++ (++ means a Ki(cathepsin S)/Ki(calpain) ratio of ≧100)
2 | NC(=O)C(=O)C(Cc1ccccc1)NC(=O)c1cccnc1-n1ccc(-c2ccccc2C(F)(F)F)n1 (stereo not drawn) [Example 72, N-(3-Amino-1-benzyl-2,3-dioxopropyl)-2-{3-[2-(trifluoromethyl)phenyl]-1H-pyrazol-1-yl}nicotinamide] | + (+ means 10≦Ki(cathepsin B)/Ki(calpain)<30) | + (+ means 10≦Ki(cathepsin K)/Ki(calpain)<30) | + (+ means 30≦Ki(cathepsin L)/Ki(calpain)<50) | ++ (++ means a Ki(cathepsin S)/Ki(calpain) ratio of ≧100)
3 | NC(=O)C(=O)C(Cc1ccccc1)NC(=O)c1cccnc1-n1ccc(-c2cccc(Cl)c2)n1 (stereo not drawn) [Example 70, N-(3-Amino-1-benzyl-2,3-dioxopropyl)-2-[3-(3-chlorophenyl)-1H-pyrazol-1-yl]nicotinamide] | + (+ means 10≦Ki(cathepsin B)/Ki(calpain)<30) | + (+ means 10≦Ki(cathepsin K)/Ki(calpain)<30) | ++ (++ means a Ki(cathepsin L)/Ki(calpain) ratio of ≧50) | ++ (++ means a Ki(cathepsin S)/Ki(calpain) ratio of ≧100)
4 | NC(=O)C(=O)C(Cc1ccccc1)NC(=O)c1cccnc1-n1ccc(-c2cc(Cl)ccc2Cl)n1 (stereo not drawn) [Example 112, N-[3-Amino-2,3-dioxo-1-(phenylmethyl)propyl]-2-[3-(2,5-dichlorophenyl)-1H-pyrazol-1-yl]pyridine-3-carboxamide] | ++ (++ means a Ki(cathepsin B)/Ki(calpain) ratio of ≧30) | ++ (++ means a Ki(cathepsin K)/Ki(calpain) ratio of ≧30) | ++ (++ means a Ki(cathepsin L)/Ki(calpain) ratio of ≧50) | ++ (++ means a Ki(cathepsin S)/Ki(calpain) ratio of ≧100)
5 | NC(=O)C(=O)C(Cc1ccccc1)NC(=O)c1cccnc1-n1ccc(-c2ccc(N3CCOCC3)cc2F)n1 (stereo not drawn) [Example 102, N-[3-Amino-2,3-dioxo-1-(phenylmethyl)propyl]-2-[3-(2-fluoro-4-morpholin-4-ylphenyl)-1H-pyrazol-1-yl]pyridine-3-carboxamide] | + (+ means 10≦Ki(cathepsin B)/Ki(calpain)<30) | ++ (++ means a Ki(cathepsin K)/Ki(calpain) ratio of ≧30) | ++ (++ means a Ki(cathepsin L)/Ki(calpain) ratio of ≧50) | ++ (++ means a Ki(cathepsin S)/Ki(calpain) ratio of ≧100)
6 | NC(=O)C(=O)C(Cc1ccccc1)NC(=O)c1cccnc1-n1cc2c(n1)-c1ccccc1CC2 (stereo not drawn) [Example 63, N-(3-Amino-1-benzyl-2,3-dioxopropyl)-2-(4,5-dihydro-2H-benzo[g]indazol-2-yl)nicotinamide] | + (+ means 10≦Ki(cathepsin B)/Ki(calpain)<30) | + (+ means 10≦Ki(cathepsin K)/Ki(calpain)<30) | ++ (++ means a Ki(cathepsin L)/Ki(calpain) ratio of ≧50) | ++ (++ means a Ki(cathepsin S)/Ki(calpain) ratio of ≧100)
7 | NC(=O)C(=O)C(Cc1ccccc1)NC(=O)c1cccnc1-n1ccc(-c2cccc3ccccc23)n1 (stereo not drawn) [Example 110, N-[3-Amino-2,3-dioxo-1-(phenylmethyl)propyl]-2-(3-naphthalen-1-yl-1H-pyrazol-1-yl)pyridine-3-carboxamide] | ++ (++ means a Ki(cathepsin B)/Ki(calpain) ratio of ≧30) | ++ (++ means a Ki(cathepsin K)/Ki(calpain) ratio of ≧30) | ++ (++ means a Ki(cathepsin L)/Ki(calpain) ratio of ≧50) | ++ (++ means a Ki(cathepsin S)/Ki(calpain) ratio of ≧100)
8 | NC(=O)C(=O)C(Cc1ccccc1)NC(=O)c1cccnc1-n1ccc(-c2cccc(C(F)(F)F)c2Cl)n1 (stereo not drawn) [Example 155, N-[3-Amino-2,3-dioxo-1-(phenylmethyl)propyl]-2-{3-[2-chloro-3-(trifluoromethyl)phenyl]-1H-pyrazol-1-yl}pyridine-3-carboxamide] | ++ (++ means a Ki(cathepsin B)/Ki(calpain) ratio of ≧30) | ++ (++ means a Ki(cathepsin K)/Ki(calpain) ratio of ≧30) | ++ (++ means a Ki(cathepsin L)/Ki(calpain) ratio of ≧50) | ++ (++ means a Ki(cathepsin S)/Ki(calpain) ratio of ≧100)
9 | NC(=O)C(=O)C(Cc1ccccc1)NC(=O)c1cccnc1-n1cc2c(n1)-c1cccc(Cl)c1OC2 (stereo not drawn) [Example 175, N-[3-Amino-2,3-dioxo-1-(phenylmethyl)propyl]-2-(6-chlorochromeno[4,3-c]pyrazol-2(4H)-yl)pyridine-3-carboxamide] | ++ (++ means a Ki(cathepsin B)/Ki(calpain) ratio of ≧30) | ++ (++ means a Ki(cathepsin K)/Ki(calpain) ratio of ≧30) | ++ (++ means a Ki(cathepsin L)/Ki(calpain) ratio of ≧50) | ++ (++ means a Ki(cathepsin S)/Ki(calpain) ratio of ≧100)
10 | NC(=O)C(=O)C(Cc1ccccc1)NC(=O)c1cccnc1-n1ccc(-c2ccccc2)n1 (stereo not drawn) [Example 5, N-(3-Amino-1-benzyl-2,3-dioxopropyl)-2-(3-phenyl-1H-pyrazol-1-yl)nicotinamide] | + (+ means 10≦Ki(cathepsin B)/Ki(calpain)<30) | + (+ means 10≦Ki(cathepsin K)/Ki(calpain)<30) | ++ (++ means a Ki(cathepsin L)/Ki(calpain) ratio of ≧50) | ++ (++ means a Ki(cathepsin S)/Ki(calpain) ratio of ≧100)
11 | NC(=O)C(=O)C(Cc1ccc(OC(F)(F)F)cc1)NC(=O)c1cccnc1-n1ccc(-c2cccc(C(F)(F)F)c2)n1 (stereo not drawn) [Example 134, N-[3-Amino-2,3-dioxo-1-({4-[(trifluoromethyl)oxy]phenyl}methyl)propyl]-2-{3-[3-(trifluoromethyl)phenyl]-1H-pyrazol-1-yl}pyridine-3-carboxamide] | ++ (++ means a Ki(cathepsin B)/Ki(calpain) ratio of ≧30) | ++ (++ means a Ki(cathepsin K)/Ki(calpain) ratio of ≧30) | + (+ means 30≦Ki(cathepsin L)/Ki(calpain)<50) | + (+ means 50≦Ki(cathepsin S)/Ki(calpain)<100)
12 | NC(=O)C(=O)C(Cc1ccccc1)NC(=O)c1cccnc1-n1ccc(-c2cccc(OCc3ccccc3)c2)n1 (stereo not drawn) [Example 96, N-[3-Amino-2,3-dioxo-1-(phenylmethyl)propyl]-2-(3-{3-[(phenylmethyl)oxy]phenyl}-1H-pyrazol-1-yl)pyridine-3-carboxamide] | ++ (++ means a Ki(cathepsin B)/Ki(calpain) ratio of ≧30) | ++ (++ means a Ki(cathepsin K)/Ki(calpain) ratio of ≧30) | ++ (++ means a Ki(cathepsin L)/Ki(calpain) ratio of ≧50) | ++ (++ means a Ki(cathepsin S)/Ki(calpain) ratio of ≧100)
